Measurements reported in patent US20080200345A1, “HIGH THROUGHPUT METHOD TO IDENTIFY LIGANDS FOR CELL ATTACHMENT” (priority 2003, published 2008).

Test system: MC3T3-E1 cells
Experiment: ECM screen: adhesion of MC3T3-E1 osteoblast cells to immobilized adhesion ligands (nuclei count)
Assay type: cell-based
Conditions: best factors approach
Source text: A statistical design was developed with special consideration of the surface chemistry requirements. In particular, in this experiment the scenario shown in FIG. 6 was used, wherein the overall adhesion ligand density was kept constant from well to well and only the adhesion ligand composition was allowed to change. In other words, the concentration of a single adhesion ligand could be different from well to well, but each well has the same amount of adhesion ligand immobilized overall. This scenario is further described above. An example of such design is shown in the spreadsheet in FIG. 7. The top row in FIG. 7 lists the 10 cell adhesion ligands used in this particular screen. The first column is a list of the experimental points that translate into a well in the 96-well plate, e.g., 52 wells in this case. The numbers in the spreadsheet are the actual volumes (in µL) of factor that is added to a particular well. In this particular design, factors get added to the wells at three volumes, e.g., 5 µL, 25 µL, or 50. mu.L. The total well volume in this case is 50 µL. Thus, for wells where one factor is added at 50 µL, the final well composition will comprise a single adhesion ligand covalently immobilized on the well surface. Accordingly, if 25 µL of a factor is added to a well, a second factor is added at 25 µL also, and the final well composition will comprise a mixture of two different cell adhesion ligands covalently immobilized on the well surface. When 5 µL of a factor are added, nine other factors are added at 5 µL each, as well, thus resulting in wells that comprise a mixture of all 10 cell adhesion ligands on the well surface. These experimental points containing all 10 adhesion ligands are called “mid points” and are an integral part of the statistical design in this example.
With reference now to FIG. 8, a 96-well plate layout is shown, which was translated from the particular statistical design shown in FIG. 7. In particular, the 96-well plate includes the well compositions indicated in FIG. 7, e.g., cell adhesion ligand combinations immobilized at the bottom of each well. In particular, the experimental runs in FIG. 7 correspond to rows/columns in FIG. 8, as follows: runs 1-10 in the design in FIG. 7 represent row B, columns 2-11, respectively on the plate layout in FIG. 8; runs 11-20 represent row C, columns 2-11; runs 21-30 represent row D, columns 2-11; runs 31-40 represent row E, columns 2-11; runs 41-50 represent row F, columns 2-11 and runs 51 and 52 represent row G, columns 2 and 3, respectively. As shown by the statistical design in FIG. 7 and the corresponding 96-well plate layout in FIG. 8, it is an embodiment of the present invention that, in addition to mixtures of agents, single agents can be placed in the receptacles. […]

Substance | Effect on cell count, mixture-model analysis (Ln(cell count-10% serum+1) vs. deviation from reference blend, FIG. 12) | Effect on cell count, mixture-model analysis (Ln(cell count-no serum+1) vs. deviation from reference blend, FIG. 11)
laminin | positive effect | increase the cell count
poly-L-lysine | diminishes | marginal effect
